{
  "source": "patent US20130079271A1",
  "about": "“REVERSED BIARYL SPIROAMINOOXAZOLINE ANALOGUES AS ALPHA2C ADRENERGIC RECEPTOR MODULATORS” (priority 2009, published 2013)",
  "data": [
    {"target": "T1, α2C receptor (Homo sapiens, UniProt P18825)", "T1 sequence (P18825 1-462)": "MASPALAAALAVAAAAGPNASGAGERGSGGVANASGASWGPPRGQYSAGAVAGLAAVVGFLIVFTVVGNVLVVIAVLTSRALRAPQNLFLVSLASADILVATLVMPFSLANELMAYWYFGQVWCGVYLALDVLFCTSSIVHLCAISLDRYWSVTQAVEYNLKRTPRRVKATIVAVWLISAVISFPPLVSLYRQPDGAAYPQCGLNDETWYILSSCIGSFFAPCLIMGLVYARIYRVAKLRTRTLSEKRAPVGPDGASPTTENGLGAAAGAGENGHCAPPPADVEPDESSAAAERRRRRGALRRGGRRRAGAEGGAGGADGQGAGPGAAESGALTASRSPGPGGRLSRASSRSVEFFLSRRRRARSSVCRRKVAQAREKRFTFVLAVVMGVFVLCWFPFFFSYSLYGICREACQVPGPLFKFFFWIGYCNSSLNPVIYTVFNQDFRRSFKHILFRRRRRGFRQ", "assay": "Efficacy agonist activity (Emax, GTPγS assay) at α2C", "type": "biochemical", "details": "by definition: efficacy at α2C ≧30% Emax (GTPγS assay); functionally selective if also efficacy at α2A ≦35% Emax", "procedure": "Efficacy agonist activity values (Emax, GTPγS assay) for α2A and α2C were determined by following the general procedure detailed by Umland et. al (“Receptor reserve analysis of the human α2c-adrenoceptor using [^35S]GTPγS and cAMP functional assays” European Journal of Pharmacology 2001, 411, 211-221). For the purposes of the present invention, a compound is defined to be a specific or at least functionally selective agonist of the α2C receptor subtype if the compound's efficacy at the α2C receptor is ≧30% Emax (GTPγS assay) and its efficacy at the α2A receptor is ≦35% Emax (GTPγS assay). Additionally, for the purposes of this invention, a compound is defined to be an antagonist of the α2C receptor subtype if the compound's efficacy at the α2C receptor is <30% Emax (GTPγS assay) and the Ki at the α2C receptor subtype was <500 nM, preferentially <200 nM, and most preferentially <20 nM.", "values": [
      {"smiles": "CN1OC2(CCc3c(cccc3-c3cncnc3)C2)N=C1N", "note": "(racemic) [(±)-5]", "evaluated to be active or functionally selective agonists of the α2C receptor subtype": "active or functionally selective agonists"},
      {"smiles": "NC1=NC[C@]2(CCc3c(cccc3-c3cncnc3)C2)O1", "note": "[1f]", "evaluated to be active or functionally selective agonists of the α2C receptor subtype": "active or functionally selective agonists"},
      {"smiles": "NC1=NC[C@]2(CCc3c(cccc3-c3cc(F)cc(F)c3)C2)O1", "note": "[compound 112]", "evaluated to be active or functionally selective agonists of the α2C receptor subtype": "active or functionally selective agonists"},
      {"smiles": "NC1=NCC2(CCc3c(cccc3-c3cncnc3)C2)O1", "note": "(racemic) [(±)-1]", "evaluated to be active or functionally selective agonists of the α2C receptor subtype": "active or functionally selective agonists"},
      {"smiles": "NC1=NC[C@]2(CCc3c(cccc3-c3cncc(F)c3)C2)O1", "note": "(racemic) [compound 113]", "evaluated to be active or functionally selective agonists of the α2C receptor subtype": "active or functionally selective agonists"},
      {"smiles": "NC1=NCC2(CCc3c(cccc3-c3cncc(F)c3)C2)O1", "note": "(racemic) [(±)-108]", "evaluated to be active or functionally selective agonists of the α2C receptor subtype": "active or functionally selective agonists"},
      {"smiles": "NC1=NCC2(CCc3c(cccc3-c3cc(F)cc(F)c3)C2)O1", "note": "(racemic) [(±)-104]", "evaluated to be active or functionally selective agonists of the α2C receptor subtype": "active or functionally selective agonists"},
      {"smiles": "CN1OC2(CCc3cccc(-c4cncnc4)c3C2)N=C1N", "note": "(racemic) [(±)-5B]", "evaluated to be active or functionally selective agonists of the α2C receptor subtype": "active or functionally selective agonists"},
      {"smiles": "CN1OC2(CCc3ccc(-c4cncnc4)cc3C2)N=C1N", "note": "(racemic) [(±)-5F]", "evaluated to be active or functionally selective agonists of the α2C receptor subtype": "active or functionally selective agonists"}
    ]}
  ]
}
